Our source for the IC50 values is ChEMBL document CHEMBL3091426, “Synthesis and antitumor-evaluation of 1,3-selenazole-containing 1,3,4-thiadiazole derivatives” (Bioorg Med Chem Lett, 2013).

Each structure is given as a SMILES string.

One test deals with L1210. Description: Antiproliferative activity against mouse L1210 cells by CCK-8 assay. It counts as functional, cell-based.
The next test deals with MCF7. The test can be described thus: Antiproliferative activity against human MCF7 cells by CCK-8 assay. It counts as functional, cell-based.

A word on the IC50: it is the concentration at which inhibition is half-maximal. Read a low IC50 as higher potency.

For the compound `C(=N\c1nnc(SCc2c[se]c(-c3ccccc3)n2)s1)/c1ccccc1`, the IC50 with L1210 was determined as 46.5 µM; in the test with MCF7, 25.6 µM.

For the compound `Fc1ccc(/C=N/c2nnc(SCc3c[se]c(-c4ccccc4)n3)s2)cc1`, the results for the IC50 in the test on L1210 and in the test on MCF7 were 56.9 µM and 10.2 µM, respectively.

As for `Clc1ccc(/C=N/c2nnc(SCc3c[se]c(-c4ccccc4)n3)s2)cc1`, the IC50 in the test on L1210 was 50 µM; in the test with MCF7, 4.02 µM.

`Brc1ccc(/C=N/c2nnc(SCc3c[se]c(-c4ccccc4)n3)s2)cc1`: the IC50 in the test with L1210 worked out at 46.5 µM; in the test on MCF7 it was 14.8 µM.

As for `Oc1ccccc1/C=N/c1nnc(SCc2c[se]c(-c3ccccc3)n2)s1`, the IC50 in the test with L1210 worked out at 38.7 µM; with MCF7, 15.2 µM.

For `Oc1ccc(/C=N/c2nnc(SCc3c[se]c(-c4ccccc4)n3)s2)cc1`, the IC50 in the test with L1210 was over 100 µM; with MCF7, 31.1 µM.

Take `Oc1ccc(/C=N/c2nnc(SCc3c[se]c(-c4ccccc4)n3)s2)c(O)c1`: the IC50 is 62.2 µM in the test with L1210 and 8.51 µM with MCF7.

For `COc1cc(/C=N/c2nnc(SCc3c[se]c(-c4ccccc4)n3)s2)ccc1O`, the results for the IC50 with L1210 and with MCF7 were over 100 µM and 15 µM, respectively.

On to `Cc1ccc(/C=N/c2nnc(SCc3c[se]c(-c4ccccc4)n3)s2)cc1`, for which the IC50 stood at 58.6 µM in the test with L1210 and 7.55 µM with MCF7.

In the case of `CN(C)c1ccc(/C=N/c2nnc(SCc3c[se]c(-c4ccccc4)n3)s2)cc1`, the IC50 in the test with L1210 was over 100 µM; with MCF7, 80.3 µM.

As to `O=[N+]([O-])c1ccc(/C=N/c2nnc(SCc3c[se]c(-c4ccccc4)n3)s2)cc1`, the IC50 is over 100 µM in the test on L1210 and 49.1 µM with MCF7.

On to `O=C(O)c1c[se]c(-c2ccccc2)n1`, for which the IC50 was 60.1 µM in the test with L1210 and 16.6 µM in the test with MCF7.
